Target: T1, GCN2 (Homo sapiens, UniProt Q9P2K8)
T1 construct: purchased Carma Biosciences (so in the source)
Assay: TR-FRET biochemical assay for inhibition of GCN2 activity
Details: 2 nM GCN2, 100 nM GFP-eIF2α, 150 μM ATP, 1.5 hours at 25° C.
Procedure, shortened: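 Compounds (11-point, 3-fold series) were incubated with GCN2 (2 nM final), GFP-eIF2α (100 nM final) and 150 μM ATP with 2 mM DTT for 1.5 h at 25 °C. A 1 nM Tb-anti-P-eIF2α solution was then added for 2 h at 25 °C. TR-FRET was read (ex 340 nm, em 495/520 nm) and fitted with a 4-parameter sigmoidal curve.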

T1 sequence (Q9P2K8 whole entry): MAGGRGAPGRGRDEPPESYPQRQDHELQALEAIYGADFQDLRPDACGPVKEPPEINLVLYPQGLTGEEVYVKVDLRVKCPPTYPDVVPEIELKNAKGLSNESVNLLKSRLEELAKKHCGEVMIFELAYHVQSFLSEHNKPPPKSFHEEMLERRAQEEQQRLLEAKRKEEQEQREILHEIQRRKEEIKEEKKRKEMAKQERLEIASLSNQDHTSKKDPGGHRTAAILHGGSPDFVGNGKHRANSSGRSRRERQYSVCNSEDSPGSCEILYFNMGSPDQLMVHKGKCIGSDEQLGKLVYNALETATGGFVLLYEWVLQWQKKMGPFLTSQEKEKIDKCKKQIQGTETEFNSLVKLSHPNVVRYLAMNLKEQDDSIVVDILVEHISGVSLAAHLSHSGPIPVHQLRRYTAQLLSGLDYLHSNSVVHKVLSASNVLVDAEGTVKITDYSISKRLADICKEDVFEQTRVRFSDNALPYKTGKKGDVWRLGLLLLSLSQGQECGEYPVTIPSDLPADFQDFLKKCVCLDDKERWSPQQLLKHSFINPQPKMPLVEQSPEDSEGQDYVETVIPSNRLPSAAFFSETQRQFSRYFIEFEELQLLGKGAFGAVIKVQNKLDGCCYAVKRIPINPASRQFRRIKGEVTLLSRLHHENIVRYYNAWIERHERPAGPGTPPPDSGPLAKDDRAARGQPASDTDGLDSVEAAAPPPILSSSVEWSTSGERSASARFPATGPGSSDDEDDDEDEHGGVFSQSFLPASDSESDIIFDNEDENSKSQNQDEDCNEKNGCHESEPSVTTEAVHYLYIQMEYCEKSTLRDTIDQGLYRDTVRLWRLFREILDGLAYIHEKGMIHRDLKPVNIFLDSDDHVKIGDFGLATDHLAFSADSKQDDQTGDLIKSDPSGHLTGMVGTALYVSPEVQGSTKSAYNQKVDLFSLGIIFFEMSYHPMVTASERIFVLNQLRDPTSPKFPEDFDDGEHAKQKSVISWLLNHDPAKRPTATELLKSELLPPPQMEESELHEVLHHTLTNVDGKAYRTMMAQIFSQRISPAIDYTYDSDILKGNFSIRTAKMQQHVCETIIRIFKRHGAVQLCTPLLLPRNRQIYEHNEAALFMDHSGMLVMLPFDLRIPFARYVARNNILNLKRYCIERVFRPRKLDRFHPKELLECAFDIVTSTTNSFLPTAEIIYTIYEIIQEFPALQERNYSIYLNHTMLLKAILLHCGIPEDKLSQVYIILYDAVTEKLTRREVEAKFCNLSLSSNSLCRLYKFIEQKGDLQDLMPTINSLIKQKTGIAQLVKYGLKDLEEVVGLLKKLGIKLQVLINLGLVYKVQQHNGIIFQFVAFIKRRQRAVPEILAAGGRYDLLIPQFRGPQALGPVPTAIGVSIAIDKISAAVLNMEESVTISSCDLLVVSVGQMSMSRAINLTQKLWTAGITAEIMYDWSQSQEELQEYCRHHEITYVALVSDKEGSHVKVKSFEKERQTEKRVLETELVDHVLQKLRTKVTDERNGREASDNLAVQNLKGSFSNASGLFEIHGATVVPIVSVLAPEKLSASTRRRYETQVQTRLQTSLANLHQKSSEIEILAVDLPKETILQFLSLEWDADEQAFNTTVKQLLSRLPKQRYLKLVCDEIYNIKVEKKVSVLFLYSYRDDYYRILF

SMILES	IC50
COc1ncc(F)cc1S(=O)(=O)Nc1ccc(F)c(COc2cnc3[nH]nc(CC(F)(F)F)c3c2)c1F [Compound 80, N-[2,4-difluoro-3-([[3-(2,2,2-trifluoroethyl)-1H-pyrazolo[3,4-b]pyridin-5-yl]oxy]methyl)phenyl]-5-fluoro-2-methoxypyridine-3-sulfonamide]	< 50 nM
COc1ncc(F)cc1S(=O)(=O)Nc1ccc(F)c(COc2cnc3[nH]nc(C(C)(F)F)c3c2)c1F [Compound 81, N-[3-([[3-(1,1-difluoroethyl)-1H-pyrazolo[3,4-b]pyridin-5-yl]oxy]methyl)-2,4-difluorophenyl]-5-fluoro-2-methoxypyridine-3-sulfonamide]	< 50 nM
COc1ncc(F)cc1S(=O)(=O)Nc1ccc(F)c(COc2cnn3cnc(C)c3c2)c1F [Compound 82, N-[2,4-difluoro-3-[([5-methylimidazo[1,5-b]pyridazin-3-yl]oxy)methyl]phenyl]-5-fluoro-2-methoxypyridine-3-sulfonamide]	< 50 nM
COc1ncc(F)cc1S(=O)(=O)Nc1ccc(F)c(COc2cnn3cnc(C(F)(F)F)c3c2)c1F [Compound 83, N-[2,4-difluoro-3-([[5-(trifluoromethyl)imidazo[1,5-b]pyridazin-3-yl]oxy]methyl)phenyl]-5-fluoro-2-methoxypyridine-3-sulfonamide]	< 50 nM
COc1ncc(F)cc1S(=O)(=O)Nc1ccc(F)c(COc2cnc3[nH]nc(-c4ccccc4)c3c2)c1F [Compound 84, N-[2,4-difluoro-3-[([3-phenyl-1H-pyrazolo[3,4-b]pyridin-5-yl]oxy)methyl]phenyl]-5-fluoro-2-methoxypyridine-3-sulfonamide]	< 50 nM
COc1ncc(F)cc1S(=O)(=O)Nc1ccc(F)c(COc2cnc3[nH]nc(C)c3c2-c2ccccc2)c1F [Compound 85, N-[2,4-difluoro-3-[([3-methyl-4-phenyl-1H-pyrazolo[3,4-b]pyridin-5-yl]oxy)methyl]phenyl]-5-fluoro-2-methoxypyridine-3-sulfonamide]	50 to 500 nM
COc1ncc(F)cc1S(=O)(=O)Nc1ccc(F)c(COc2cnc3[nH]nc(C)c3c2C2CC2)c1F [Compound 86, N-[3-[([4-cyclopropyl-3-methyl-1H-Pyrazolo[3,4-b]pyridin-5-yl]oxy)methyl]-2,4-difluorophenyl]-5-fluoro-2-methoxypyridine-3-sulfonamide]	50 to 500 nM
COc1ncc(F)cc1S(=O)(=O)Nc1ccc(F)c(COc2cnc3[nH]nc(C)c3c2-c2ccncc2)c1F [Compound 87, N-[2,4-difluoro-3-([[3-methyl-4-(pyridin-4-yl)-1H-pyrazolo[3,4-b]pyridin-5-yl]oxy]methyl)phenyl]-5-fluoro-2-methoxypyridine-3-sulfonamide]	50 to 500 nM
COc1ncc(F)cc1S(=O)(=O)Nc1ccc(F)c(COc2cnc3[nH]nc(C)c3c2C(C)C)c1F [Compound 88, N-[2,4-difluoro-3-[([4-isopropyl-3-methyl-1H-pyrazolo[3,4-b]pyridin-5-yl]oxy)methyl]phenyl]-5-fluoro-2-methoxypyridine-3-sulfonamide]	> 1000 nM
COc1ncc(F)cc1S(=O)(=O)Nc1ccc(F)c(COc2cnc3[nH]nc(C)c3c2Cc2ccccc2)c1F [Compound 89, N-[3-[([4-benzyl-3-methyl-1H-pyrazolo[3,4-b]pyridin-5-yl]oxy)methyl]-2,4-difluorophenyl]-5-fluoro-2-methoxypyridine-3-sulfonamide]	> 1000 nM
COc1ncc(F)cc1S(=O)(=O)Nc1ccc(F)c(COc2cnc3[nH]nc(C)c3c2-c2ccccn2)c1F [Compound 90, N-[2,4-difluoro-3-([[3-methyl-4-(pyridin-2-yl)-1H-pyrazolo[3,4-b]pyridin-5-yl]oxy]methyl)phenyl]-5-fluoro-2-methoxypyridine-3-sulfonamide]	50 to 500 nM
COc1ncc(F)cc1S(=O)(=O)Nc1ccc(F)c(COc2cnc3[nH]nc(C)c3c2-c2cccnc2)c1F [Compound 91, N-[2,4-difluoro-3-([[3-methyl-4-(pyridin-3-yl)-1H-pyrazolo[3,4-b]pyridin-5-yl]oxy]methyl)phenyl]-5-fluoro-2-methoxypyridine-3-sulfonamide]	50 to 500 nM
COc1ncc(F)cc1S(=O)(=O)Nc1ccc(F)c(COc2cnc3[nH]nc(C)c3c2C2CCCC2)c1F [Compound 92, N-(3-(((4-cyclopentyl-3-methyl-1H-pyrazolo[3,4-b]pyridin-5-yl)oxy)methyl)-2,4-difluorophenyl)-5-fluoro-2-methoxypyridine-3-sulfonamide]	500 to 1000 nM
COc1ncc(F)cc1S(=O)(=O)Nc1ccc(F)c(COc2cnc3[nH]nc(C)c3c2C2CCN(C)CC2)c1F [Compound 93, N-(2,4-difluoro-3-(((3-methyl-4-(1-methylpiperidin-4-yl)-1H-pyrazolo[3,4-b]pyridin-5-yl)oxy)methyl)phenyl)-5-fluoro-2-methoxypyridine-3-sulfonamide]	> 1000 nM
COc1ncc(F)cc1S(=O)(=O)Nc1ccc(F)c(COc2cnc3[nH]nc(C)c3c2N2CCCCC2)c1F [Compound 94, N-(2,4-difluoro-3-(((3-methyl-4-(piperidin-1-yl)-1H-pyrazolo[3,4-b]pyridin-5-yl)oxy)methyl)phenyl)-5-fluoro-2-methoxypyridine-3-sulfonamide]	50 to 500 nM
